Results on two compounds are retold here after US20250127774A1, “COMPOUNDS FOR LABELLING NUCLEIC ACID AND USES THEREOF” (THE ROYAL INSTITUTION FOR THE ADVANCEMENT OF …, priority 2022, published 2025).

Structures are written as SMILES. Read-outs that look alike come from different tables or passages of the source.

For series [1], the system named is duplex DNA containing VdU (vinyl-modified ODN). In words: Kinetic measurements with ODNs (DNA-templated PINK-VdU reaction). The conditions noted are these: 50 mM aq. NaOAc buffer pH 5.2 (0.8% DMSO). An excerpt: A) Relative fluorescence units (RFU) of PINK upon reaction with vinyl-modified ODN versus time. […] B) Normalized increase of fluorescence. C) Plot of the observed rates k′ against PINK concentration. The slope yields the rate constant k.
To characterize DNA-templated PINK-VdU reactions, a VdU-containing, palindromic 17-mer DNA oligonucleotide “ODN1” was synthesized (Table 1). The DMT-protected VdU phosphoramidite S4 (Scheme 2)^[51] was incorporated into the oligomer utilizing standard solid phase supported DNA synthesis. ODN1 was purified using reverse-phase HPLC and annealed with a complimentary strand to form a duplex. […] By tracking the fluorescence changes under pseudo-first order conditions (FIG. 8), an apparent rate constant k=590 M^−1 s^−1 was determined for the reaction between PINK and the duplex DNA containing VdU. […]
Kinetic Measurements with ODNs. Second-order rate constants for the reaction between vinyl-modified ODN and PINK were determined under pseudo first order conditions employing an excess of the tetrazine. […] Measurements were performed on a SpectraMax M5 plate reader (Molecular Devices, Sunnyvale, CA, USA) in 384 well plates (Greiner bio-one, cat-#871906; 40 μL per well). […] Samples were measured over the course of 1 h in intervals of 45 s. […] Reactions rates were calculated using pseudo first order approximations fitting the measurements to mono exponential equations. […]

Series [2] can be described thus: PINK stability test. Type of series: physicochemical. The conditions noted are these: 20 μM PINK, 1 mM b.p. CT-DNA, PBS pH 7.4 (10% DMSO). On the procedure: B) Fluorescence changes (excitation: 500 nm, emission: 590 nm; 515 nm cutoff filter) of 20 μM PINK in the presence of 1 mM b.p. CT-DNA (50 eq) in PBS pH 7.4 (10% DMSO) followed by addition of 5-norbornene-2-methanol (2 mM, 100 eq).
PINK Stability Test. Fluorescence changes (excitation: 500 nm, emission: 590 nm; 515 nm cutoff filter) of 20 μM PINK were monitored in the presence of 1 mM base pairs of calf thymus (CT) DNA (50 eq) in PBS pH 7.4 (10% DMSO) followed by addition of 5-norbornene-2-methanol (2 mM, 100 eq). Measurements were conducted on a SpectraMax M5 plate reader (Molecular Devices, Sunnyvale, CA, USA) in 1 cm path-length quartz cuvettes.

The test system of series [3] is Jurkat cells. The series is described as follows: Resazurin combination toxicity assay. It is filed as cell-based. The conditions noted are these: Homo sapiens. On the procedure:
(§1) From the single toxicity experiment, it was determined that the optimal subtoxic concentration of PINK to be used for the combination toxicity assays would be 1 μM. To test how effective the vinyl-nucleosides (VdU/VdA) in combination with PINK are at killing the cells compared to the vinyl-nucleosides alone, another resazurin reduction assay was carried out.
(§2) To determine if it is possible to treat the leukemia cells with the vinyl-nucleosides and PINK simultaneously, instead of adding them sequentially, another resazurin reduction assay using the same concentrations of each compound as in the previous combination experiment was carried out, where instead the vinyl-nucleosides and PINK were added on the same day instead of on two consecutive days.
(§3) Resazurin Combination toxicity assays. MV4-11, MOLM-13 and Jurkat cells were seeded in 96-well plates at a density of 20 000 cells/well, 25 000 cells/well and 30 000 cells/well, respectively, in triplicates. For the sequential addition, the cells were first treated with the nucleosides (VdU/VdA) diluted in fresh media in 1:4 serial dilutions (˜0.01% DMSO) at concentrations of 500-0 μM, and incubated overnight. 24h post nucleoside addition, the cells were treated with 1 μM PINK diluted in fresh media (˜1% DMSO), and incubated for 24-72h. The cells were treated with resazurin, incubated and measured, as described above. For the simultaneous addition, the cells were treated with nucleosides and PINK on the same day at the same concentrations as describes above, and incubated for 24-72h.
(In general: The colour change of resazurin is a common sign of viable cells or microbes.)

The subject of series [4] is MV4-11 cells. In words: Resazurin combination toxicity assay. Type of series: cell-based. The conditions noted are these: Homo sapiens. On the procedure:
as §1, §2, §3

Series [5] relates to MOLM-13 cells. In words: Resazurin combination toxicity assay. Type of series: cell-based, human. The conditions noted are these: Homo sapiens, MOLM-13, MOLM-13; variable VdU/VdA alone or with 1 μM PINK added 24 h post nucleoside addition; read-out: IC50 value (48 h) for sequential addition. On the procedure:
as §1, §3

The mark [6] stands for this setting: 48 h, variable VdU/VdA alone or with 1 μM PINK added on the same day, read-out: IC50 value (48 h) for simultaneous addition.
[7] abbreviates: variable VdU/VdA alone or with 1 μM PINK added 24 h post nucleoside addition, read-out: IC50 value (48 h) for sequential addition.

`Cc1nnc(-c2ccc3cc4ccc(N(C)C)cc4nc3c2)nn1` [PINK]: in series [1] (4 μM vinyl-modified ODN, PINK 3-5 eq), the “apparent rate constant k, reaction with duplex DNA containing VdU” value is 590 M⁻¹ s⁻¹. Further, in series [1] (12-20 μM PINK, 1 h), the “stability of PINK under control conditions (without vinyl-modified ODN)” value is “full stability”. In series [2], the “degradation of PINK on extended incubation with unmodified DNA” value is reported as “little-to-no degradation”.
On to `C=Cc1cn([C@H]2C[C@H](O)[C@@H](CO)O2)c(=O)[nH]c1=O` [VdU, 5-vinyl-2′-deoxyuridine], for which the IC50 in series [3] (setting [6]) was found to be 404 µM; in series [3] (setting [7]), 58 µM; in series [4] (setting [6]), 124 µM; in series [4] (setting [7]), 60 µM; in series [5], 18 µM.

In general, IC50 refers to the point on the concentration scale where inhibition reaches its midpoint.
